The values below come from patent US20080096932A1, “3-Pyridinylethylcarboxamide Derivatives as Fungicides” (priority 2004, published 2008).

In one experiment the test system is Alternaria brassicae. Description: in vivo test on Alternaria brassicae (Leaf spot of crucifers). The settings on record: for effectiveness on Alternaria brassicae: at 330 ppm, comparison compounds of WO 01/11965. How it is done: in vivo test on Alternaria brassicae (Leaf spot of crucifers)
The active ingredient tested is prepared by potter homogenisation in a concentrated suspension type formulation at 100 g/l. This suspension is then diluted with water to obtain the desired active material concentration.
Radish plants (Pernot variety) in starter cups, sown on a 50/50 peat soil-pozzolana substrate and grown at 18-20° C., are treated at the cotyledon stage by spraying with the aqueous suspension described above.
Plants, used as controls, are treated with an aqueous solution not containing the active material.
After 24 hours, the plants are contaminated by spraying them with an aqueous suspension of Alternaria brassicae spores (40,000 spores per cm^3). The spores are collected from a 12 to 13 days-old culture.
The contaminated radish plants are incubated for 6-7 days at about 18° C., under a humid atmosphere.
Grading is carried out 6 to 7 days after the contamination, in comparison with the control plants.

A further experiment has as its system Botrytis cinerea. Kind of experiment: effectiveness on Botrytis cinerea. In kind it is in vivo. The settings on record: at 330 ppm; comparison compounds of WO 01/11965.
A further experiment has as its system Peronosporaparasitica. Kind of experiment: efficacy against Peronospora parasitica. In kind it is in vivo. The settings on record: at 330 ppm; comparison compound of WO 01/11965.

Molecules are shown by their SMILES.

Regarding `Cn1cc(C(=O)NCCc2ccc(C(F)(F)F)nc2)c(C(F)(F)F)n1` [Compound A-1, N-[2-(6-trifluoromethyl-3-pyridinyl)ethyl]-1-methyl-3-(trifluoromethyl)-1H-pyrazole-4-carboxamide], in the experiment with Alternaria brassicae (330 ppm, radish plants sprayed 24 h before contamination, grading 6 to 7 days after contamination vs control plants), the “protection (good (at least 50%) or total)” value is recorded as “at least 50%”.

In the case of `O=C(Cc1cccs1)NCc1ncc(C(F)(F)F)cc1Cl` [compound 101, N-{[3-chloro-5-(trifluoromethyl)-2-pyridinyl]methyl}-5-thienylacetamide], in the experiment with Botrytis cinerea, the “effectiveness on Botrytis cinerea” value was “no efficacy”. The “effectiveness on Alternaria brassicae” value in the experiment with Alternaria brassicae is listed as “poor efficacy”. In the experiment on Peronosporaparasitica, the “efficacy against Peronospora parasitica” value is reported as “no efficacy”.

Turning to `CCNC(=O)C(Cc1ncc(C(F)(F)F)cc1Cl)NC(=O)c1ccccc1` (stereo not shown) [compound 304, N-{1-ethylcarbamoyl-2-[3-chloro-5-(trifluoromethyl)-2-pyridinyl]-ethyl}-benzamide], the “effectiveness on Botrytis cinerea” value in the experiment on Botrytis cinerea is recorded as “zero effectiveness”.

Turning to `CCNC(=O)C(Cc1ncc(C(F)(F)F)cc1Cl)NC(=O)c1ccc(Cl)cc1` (stereo not shown) [compound 306, N-{1-ethylcarbamoyl-2-[3-chloro-5-(trifluoromethyl) -2-pyridinyl]ethyl}-4-chlorobenzamide], the “effectiveness on Botrytis cinerea” value in the experiment with Botrytis cinerea was “zero effectiveness”.

In the case of `CCNC(=O)C(Cc1ncc(C(F)(F)F)cc1Cl)NC(=O)c1cccc([N+](=O)[O-])c1` (stereo not shown) [compound 307, N-{1-ethylcarbamoyl-2-[3-chloro-5-(trifluoromethyl)-2-pyridinyl]ethyl}-3-nitrobenzamide], in the experiment on Botrytis cinerea, the “effectiveness on Botrytis cinerea” value is reported as “zero effectiveness”. Further, the “effectiveness on Alternaria brassicae” value with Alternaria brassicae is given as “poor effectiveness”.

Take `CCNC(=O)C(Cc1ncc(C(F)(F)F)cc1Cl)NC(=O)c1ccccc1Br` (stereo not shown) [compound 310, N-{1-ethylcarbamoyl-2-[3-chloro-5-(trifluoromethyl)-2-pyridinyl]ethyl}-2-bromobenzamide]: the “effectiveness on Botrytis cinerea” value in the experiment on Botrytis cinerea is recorded as “zero effectiveness”.

As to `CNC(=O)C(Cc1ncc(C(F)(F)F)cc1Cl)NC(=O)c1ccccc1` (stereo not shown) [compound 314, N-{1-methylcarbamoyl-2-[3-chloro-5-(trifluoromethyl) -2-pyridinyl]ethyl}-benzamide], in the experiment on Botrytis cinerea, the “effectiveness on Botrytis cinerea” value was “zero effectiveness”.

As for `CNC(=O)C(Cc1ncc(C(F)(F)F)cc1Cl)NC(=O)c1ccc(OC)cc1` (stereo not shown) [compound 315, N-{1-methylcarbamoyl-2-[3-chloro-5-(trifluoromethyl)-2-pyridinyl]ethyl}-4-methoxybenzamide], the “effectiveness on Botrytis cinerea” value in the experiment on Botrytis cinerea is given as “zero effectiveness”.

Take `CNC(=O)C(Cc1ncc(C(F)(F)F)cc1Cl)NC(=O)c1ccc(-c2ccccc2)cc1` (stereo not shown) [compound 316, N-{1-methylcarbamoyl-2-[3-chloro-5-(trifluoromethyl)-2-pyridinyl]-ethyl}-4-phenylbenzamide]: the “effectiveness on Botrytis cinerea” value in the experiment with Botrytis cinerea is reported as “zero effectiveness”. The “effectiveness on Alternaria brassicae” value with Alternaria brassicae was “poor effectiveness”.
